Legend:
Kcc2 gene expression = assay: Composite ranking from primary and secondary screening; type: cell-based, mouse; conditions: for Total Score: sum of Luciferase, RT-qPCR and Clomeleon scores; for Top 2 Hits: winner = top 2 of each library by total score
Description: (§1) The primary screen encompassed three levels of LUC measurements. The first level of screening yielded a total of 137 compounds with cut-off RLU>125% LUC activity. These 137 compounds were subject to second round of screening, which was carried out in duplicate independent assays to yield the top 103 compounds sorted for highest RLU. The 103 compounds were then subjected to a third round of screening carried out in duplicate independent assays to yield the top 40 compounds which were again ranked. The best 22 of these 40 compounds (ranked for highest RLU activity) were subjected to secondary screening: cultured neurons were treated with the 22 compounds; RT-qPCR and Clomeleon imaging methodologies (Yeo et al., 2009, J Neurosci 29: 14652-14662) were used to determine effects of compounds on Kcc2 mRNA expression and [Cl-]i, respectively. Each compound was ranked based on composite scores from primary and secondary screening.
(§2) 1057 compounds were screened and contained in two NCI libraries: NCI compound libraries Natural Products II and Mechanistic Diversity Set II (FIG. 1, Table 2), related to inhibition of growth of malignantly transformed cells. […] Iterative screening followed by measurements of Kcc2 mRNA (RT-qPCR) and intracellular chloride ([Cl-]i) (clomeleon chloride indicator protein) led to decreasing numbers of re confirmed hits, which eventually identified four (4) “winner” compounds listed in the bottom panel of FIG. 1.

[1] = tested on: intracellular chloride ([Cl-]i) of primary cortical neurons; assay: Secondary screen: Clomeleon chloride imaging in cultured primary cortical neurons; type: cell-based, mouse; conditions: for Chloride [Cl—]i, value left of '=>': starting value before the arrow; for Chloride [Cl—]i, value right of '=>': value after the arrow (with compound)
Description: as §1
(§3) Chloride imaging of primary cultured cortical neurons was conducted as previously described (Kuner and Augustine, 2000, Neuron 27: 447-459; Liedtke et al., 2013, Small (Weinheim an der Bergstrasse, Germany) 9: 1066-1075; Yeo et al., 2009, J Neurosci 29: 14652-14662). A Clomeleon expression plasmid was transfected into primary cortical neurons by electroporation (Amaxa Nucleofector Device). Transfected neurons were verified by yellow fluorescent protein (YFP) fluorescence, and ratiometric images (excitation at λ=434 nm, dual emission at λ=485 and 535 nm; for resting chloride, six stable frames at […] were captured, which were averaged) were acquired using RATIOTOOL program. Calibration of Clomeleon signals (535 nm/485 nm emission ratio) was performed by using tributyltin-nigericin to establish a standard curve, which was then normalized for measured intraneuronal pH to take into account the pH sensitivity of Clomeleon.
as §2

Kcc2 promoter = assay: Primary screen: luciferase (LUC) activity in primary cortical neurons from Kcc2-LUC transgenic mice; type: cell-based, mouse; conditions: rank score within compound library; compounds 100 nM for 48 h
Description: Cell suspension was plated at a density of 1×10^6 cells/ml onto 24-well tissue-culture dishes coated with poly-d-lysine.
LUC activity was then determined for each compound. Culture supernatant was removed and cells were lysed with 150 μl lysis buffer (Targeting Systems CA, USA cat. CLR1). LUC activity was measured with a RedLuciferase Assay kit (Targeting Systems cat. FLAR) according to the manufacturer's instructions. A Veritas microplate luminometer was used to measure luminescence; for each treatment triplicates of 40 μl cell lysates (from each 24-well tissue-culture dish) were used and 25 μl substrate was injected per well. […] Relative Light units (RLU) for each treatment was derived from Light Units (compound treatment)/vehicle treatment (0.5% DMSO).
The primary screen encompassed three levels of LUC measurements. […] Each compound was ranked based on composite scores from primary and secondary screening.

Kcc2 mRNA = assay: Secondary screen: Kcc2 RT-qPCR in cultured primary cortical neurons; type: cell-based, mouse; conditions: rank score within compound library
Description: as §1, with “Each compound was ranked based on composite scores from primary and secondary screening.” left out
Total RNA was isolated from cultured cell samples using Directzol RNA miniprep kit (ZymoResearch). […] Gene expression was assessed by quantitative real-time PCR using 2×SYBR Green Master Mix (Qiagen) and a three-step cycling protocol (anneal at 60° C./elongate at 72° C., denature at 95° C.). […] The amount of target messenger RNA (mRNA) in the experimental group relative to that in the control was determined from the resulting fluorescence and threshold values (Ct) using the […] method. […] was used as a housekeeping gene. […]

neuronal [Cl-]i = assay: Clomeleon [Cl-]i measurement in rat primary cortical neurons; type: cell-based; conditions: VU0240551 2.5 μM, both vehicle-treated and KP-treated rat neurons
Description: as §3
Results represent the average mRNA expression of multiple independent neuronal cultures [n=12 (control), n=4 (0.1 μM KP), n=3 (0.2 μM KP), n=10 (0.5 μM KP). *p<0.05, **p<0.01, ****p<0.0001, one-way ANOVA].
It is shown that KP enhanced Kcc2 gene expression and KCC2 chloride extrusion function with rather rapid kinetics within 3 h time frame.

MDA MB-231 = assay: MTT cell viability assay; type: cell-based; conditions: KP 100 nM and/or paclitaxel 1 nM or 10 nM, 72 hours
Description: (§4) Two commonly used breast cancer cell lines (MCF7 and MDA MB-231) and one melanoma cell line (A375) were used in this study. 100 nM Kenpaullone (KP) and/or 1 nM or 10 nM paclitaxel (Taxol) were administered to the cell lines to test their impact on cell viability. Each bar represents an average of 6 experiments, and error bars represent SEM. Cell line maintenance and MTT cell viability assay were done according to Xiao et al. (2018, BMC Cancer, 18(1): 675). Cell viability was assessed after 72 hours.

MCF7 = assay: MTT cell viability assay; type: cell-based; conditions: KP 100 nM and/or paclitaxel 1 nM or 10 nM, 72 hours
Description: as §4

A375 = assay: MTT cell viability assay; type: cell-based; conditions: KP 100 nM and/or paclitaxel 1 nM or 10 nM, 72 hours
Description: as §4

Compound	Total Score (Kcc2 gene expression)	Chloride [Cl—]i, value left of '=>' [1]	Chloride [Cl—]i, value right of '=>' [1]	further results
Cc1cc(-c2nc3ccccc3s2)ccc1N [4-(1,3-Benzothiazol-2-yl)-2-methylaniline]	13	82 mM	38 mM	
CC(O)CCC(=O)c1ccoc1 (stereo not shown) [4-Ipomeanol]	8	74 mM	32 mM	
N=C1N=CN=C2C([C@@H]3O[C@H](CO)[C@@H](O)[C@H]3O)=CN=C12 [9-Deazaadenosine]	11	82 mM	40 mM	
CC(=O)Nc1ccc(-c2nc3ccccc3s2)cc1 [NSC33006, N-[4-(1,3-benzothiazol-2-yl)phenyl]acetamide]	5	74 mM	28 mM	Top 2 Hits (Kcc2 gene expression): winner
Cc1ccc(NC(=O)c2cccc([N+](=O)[O-])c2O)c(C)c1 [NSC79456, n-(2,4-Dimethylphenyl)-2-hydroxy-3-nitrobenzamide]	5	74 mM	24 mM	Top 2 Hits (Kcc2 gene expression): winner
CC(=O)C1CCCC(=O)/C=C/C(=O)O1 (stereo not shown) [NSC180515, 2-Acetyl-2,3,4,5-tetrahydrooxonine-6,9-dione]	6	68 mM	22 mM	Luciferase Score (triplicates) (Kcc2 promoter): 4; RT-qPCR Score (triplicates) (Kcc2 mRNA): 1; Top 2 Hits (Kcc2 gene expression): winner; Chloride reduction (%) [1]: 32%; Clomeleon Score (duplicates) ([1]; rank score within compound library): 1
Cc1csc(NC(=O)CSc2ccc(-c3ccccc3)nn2)n1 [VU0240551]				[Cl-]i with add-on KCC2-transport blocker (neuronal [Cl-]i): ≥ 120 mM
COc1ccc(C[C@H]2NC[C@H](O)[C@H]2OC(C)=O)cc1 [anisomycine]		75 mM	43 mM	
C[C@@]12C(=O)OC(=O)[C@]1(C)[C@H]1CC[C@@H]2O1 [cantharidine]		68 mM	33 mM	
CC1(C)CCC[C@]2(C)C3=C(CC[C@@H]12)C(=O)OC3 [confertifoline]		75 mM	42 mM	
CC(=O)O[C@H]1C(=O)[C@@]2(C)[C@H]([C@H](OC(=O)c3ccccc3)[C@]3(O)C[C@H](OC(=O)[C@H](O)[C@@H](NC(=O)c4ccccc4)c4ccccc4)C(C)=C1C3(C)C)[C@]1(OC(C)=O)CO[C@@H]1C[C@@H]2O [paclitaxel]				cell viability (MTT) (MDA MB-231): sensitive; cell viability (MTT) (MCF7): sensitive; cell viability (MTT) (A375): sensitive
COc1cc2c3c(c4ccc(OC)c(OC)c4c2cc1OC)CN1CCC[C@H]1C3 [tylocrebrine]		75 mM	39 mM	

— patent US20230056189A1, “COMPOSITIONS AND METHODS FOR TREATMENT OF PATHOLOGIC PAIN ASSOCIATED WITH MALIGNANT GROWTH DISORDER” (Duke University, priority 2020, published 2023)
